Measured values: the NIST ThermoML archive (doi:10.1016/j.fluid.2005.06.010)

Test: xn = mol fraction of the nth substance listed
Conditions: Fluid (supercritical or subcritical phases), Vibrating tube method

c1ccc2ccccc2c1 [naphthalene] + O=C=O
Conditions | mass density [kg/m3]
323.07 K, 21967 kPa, x1 = 0.0049 | 814.97
323.07 K, 21991 kPa, x1 = 0.0235 | 840.23
323.07 K, 22035 kPa, x1 = 0.0093 | 823.39
323.07 K, 22055 kPa, x1 = 0.0144 | 828.6
323.07 K, 23011 kPa, x1 = 0.0144 | 836.78
323.07 K, 23014 kPa, x1 = 0.0049 | 824.8
323.07 K, 23024 kPa, x1 = 0.0235 | 848.46
323.07 K, 23037 kPa, x1 = 0.0093 | 832.27
323.07 K, 23975 kPa, x1 = 0.0144 | 844.56
323.07 K, 24012 kPa, x1 = 0.0235 | 855.79
323.07 K, 24013 kPa, x1 = 0.0093 | 840.35
323.07 K, 24015 kPa, x1 = 0.0049 | 833.51
323.07 K, 25007 kPa, x1 = 0.0235 | 862.81
323.07 K, 25048 kPa, x1 = 0.0093 | 848.36
323.08 K, 12879 kPa, x1 = 0.0173 | 702.14
323.08 K, 13019 kPa, x1 = 0.0173 | 705.93
323.08 K, 13536 kPa, x1 = 0.0173 | 719.07
323.08 K, 14042 kPa, x1 = 0.0173 | 730.6
323.08 K, 15088 kPa, x1 = 0.0173 | 750.8
323.08 K, 16012 kPa, x1 = 0.0173 | 766
323.08 K, 17038 kPa, x1 = 0.0173 | 780.79
323.08 K, 18011 kPa, x1 = 0.0173 | 793.15
323.08 K, 19021 kPa, x1 = 0.0173 | 804.74
323.08 K, 20018 kPa, x1 = 0.0173 | 815.17
323.08 K, 21012 kPa, x1 = 0.0173 | 824.64
323.08 K, 22051 kPa, x1 = 0.0173 | 833.83
323.08 K, 23040 kPa, x1 = 0.0173 | 842.05
323.08 K, 24014 kPa, x1 = 0.0173 | 849.58
323.08 K, 24688 kPa, x1 = 0.0173 | 854.56
323.11 K, 11710 kPa, x1 = 0.0065 | 608.68
323.11 K, 11886 kPa, x1 = 0.0065 | 618.53
323.11 K, 12112 kPa, x1 = 0.0065 | 630.1
323.11 K, 12597 kPa, x1 = 0.0065 | 651.76
323.11 K, 13175 kPa, x1 = 0.0065 | 672.88
323.11 K, 14114 kPa, x1 = 0.0065 | 700.29
323.11 K, 14946 kPa, x1 = 0.0065 | 719.89
323.11 K, 15974 kPa, x1 = 0.0065 | 740.17
323.11 K, 17091 kPa, x1 = 0.0065 | 758.86
323.11 K, 18018 kPa, x1 = 0.0065 | 772.31
323.11 K, 19119 kPa, x1 = 0.0065 | 786.49
323.11 K, 19947 kPa, x1 = 0.0065 | 796.13
323.11 K, 21027 kPa, x1 = 0.0065 | 807.77
323.11 K, 22102 kPa, x1 = 0.0065 | 818.31
323.11 K, 23244 kPa, x1 = 0.0065 | 828.6
323.11 K, 23905 kPa, x1 = 0.0065 | 834.23
323.11 K, 24345 kPa, x1 = 0.0065 | 837.73
323.13 K, 10131 kPa, x1 = 0.0038 | 441.7
323.13 K, 10204 kPa, x1 = 0.0038 | 452.21
323.13 K, 10370 kPa, x1 = 0.0038 | 473.73
323.13 K, 10546 kPa, x1 = 0.0038 | 495.19
323.13 K, 10713 kPa, x1 = 0.0038 | 513.93
323.13 K, 10899 kPa, x1 = 0.0038 | 532.86
323.13 K, 11125 kPa, x1 = 0.0038 | 553.43
323.13 K, 11428 kPa, x1 = 0.0038 | 577.02
323.13 K, 11636 kPa, x1 = 0.0038 | 591
323.13 K, 11975 kPa, x1 = 0.0038 | 610.86
323.13 K, 12255 kPa, x1 = 0.0038 | 625.25
323.13 K, 12628 kPa, x1 = 0.0038 | 641.9
323.13 K, 13011 kPa, x1 = 0.0038 | 656.88
323.13 K, 13569 kPa, x1 = 0.0038 | 675.56
323.13 K, 14021 kPa, x1 = 0.0038 | 688.77
323.13 K, 15003 kPa, x1 = 0.0038 | 713.06
323.13 K, 16030 kPa, x1 = 0.0038 | 733.89
323.13 K, 17020 kPa, x1 = 0.0038 | 750.95
323.13 K, 18020 kPa, x1 = 0.0038 | 766.06
323.13 K, 19025 kPa, x1 = 0.0038 | 779.54
323.13 K, 20018 kPa, x1 = 0.0038 | 791.52
323.13 K, 21018 kPa, x1 = 0.0038 | 802.54
323.13 K, 22016 kPa, x1 = 0.0038 | 812.65
323.13 K, 23026 kPa, x1 = 0.0038 | 822.13
323.13 K, 24020 kPa, x1 = 0.0038 | 830.83
323.13 K, 25003 kPa, x1 = 0.0038 | 838.9
327.94 K, 14128 kPa, x1 = 0.0198 | 700.18
327.94 K, 15025 kPa, x1 = 0.0198 | 721
327.94 K, 15984 kPa, x1 = 0.0198 | 739.45
327.94 K, 17037 kPa, x1 = 0.0198 | 756.72
327.94 K, 18024 kPa, x1 = 0.0198 | 770.78
327.94 K, 18966 kPa, x1 = 0.0198 | 782.81
327.94 K, 20021 kPa, x1 = 0.0198 | 794.93
327.94 K, 21050 kPa, x1 = 0.0198 | 805.66
327.94 K, 22039 kPa, x1 = 0.0198 | 815.2
327.94 K, 22982 kPa, x1 = 0.0198 | 823.62
327.94 K, 24044 kPa, x1 = 0.0198 | 832.44
327.94 K, 25048 kPa, x1 = 0.0198 | 840.3
